Test results: patent US12059486B2, “Cosmetic compositions” (Rodan & Fields, LLC, priority 2021, dated 2024)

Assays:
[1] = Free radical scavenging activity (ABTS); assay type: biochemical; settings: 0.06 mg/mL; expressed as % water control
Experimental: Free radical scavenging activity was tested of different experimental conditions expressed as % water control. The positive control, ascorbic acid (Ref. 5), reached the expected level of inhibitory activity technically validating the experiments.

[2] = tested on: human epidermal melanocytes; assay: Melanin content in human epidermal melanocytes; assay type: cell-based; settings: 7 days
Experimental: Test materials were added to exponentially growing cultures and the experiment was terminated 7 days later.

insoluble decorin = assay: Insoluble decorin in adult human dermal fibroblasts (Method F); assay type: cell-based; settings: 10 ng/mL; day 7; standardized to cell numbers, % of water control
Experimental: (§1) Method F: Test materials were dissolved in sterile cell culture medium at x2 highest concentration tested and samples were added in triplicates to exponentially growing adult human dermal fibroblasts (7,000 cells/well of a 96 well plate; p.7 Cell Applications, San Diego, CA, cat. #106-05a; lot #3014). Cultures were maintained in DMEM/10%FBS. At the end of the experiment (day 7), decorin was quantified in the cell culture medium (soluble fraction) and on fixed cells (insoluble fraction) by ELISA. Total insoluble (cytoskeletal) proteins were quantified to determine the effect of test materials on cell proliferation (cell numbers or cell #) according to the method described by Voigt et al., 2005. These values were also used to standardize decorin output data to cell numbers, using Equation 1. This standardization was performed separately for each well. Each experimental condition and control was assayed at least in triplicates. The effect of test materials on mitochondrial metabolism was measured with the MTT assay, which measures the activity of mitochondrial dehydrogenases, such as succinate dehydrogenase, implicated in the respiratory electron transport chain in mitochondria (Berridge & Tan; 1993).

decorin = assay: Output of ECM components in adult human dermal fibroblast culture model (Method E): decorin; assay type: cell-based; settings: 10 ng/mL; day 7; corrected for cell numbers, % of water control
Experimental: (§2) Method E: Metabolism, Proliferation and Output of ECM Components in the Adult Human Dermal Fibroblast Culture Model. Test materials were dissolved in sterile cell culture medium at ×2 highest concentration tested and samples were added in triplicates to exponentially growing adult human dermal fibroblasts (aHDF; 7,000 cells/well of a 96 well plate; p.7 Cell Applications, San Diego, CA, cat. #106-05a; lot #3014). Cultures were maintained in DMEM/10% FBS. At the end of the experiments (day 7), macromolecules of interest were quantified either in the cell culture medium (decorin, type I collagen, type III collagen and hyaluronate) or on fixed cells (total insoluble proteins and elastin), by ELISA and sulforhodamine B, as indicated in Tables II-IV. Total insoluble (cytoskeletal) proteins were quantified to determine the effect of test materials on cell proliferation (cell numbers or cell #) according to the method described by Voigt et al., 2005. These values were also used to standardize decorin, type I collagen, type III collagen, elastin and hyaluronate output data to cell numbers, using the Equation 1: (Standardized Cell #)=[macromolecule of interest raw read out value]/cell number raw read out value] […]
(§3) This standardization was performed separately for each well. […] All colorimetric measurements were performed using Molecular Devices microplate reader MAX190 and SoftMax3.1.2PRO software. […]

soluble decorin = assay: Soluble decorin in adult human dermal fibroblasts (Method F); assay type: cell-based; settings: 10 ng/mL; day 7; standardized to cell numbers, % of water control
Experimental: as §1

Type I Collagen = assay: Output of ECM components in adult human dermal fibroblast culture model (Method E): type I collagen; assay type: cell-based; settings: 10 ng/mL; day 7; corrected for cell numbers, % of water control
Experimental: as §2, §3

Type III collagen = assay: Output of ECM components in adult human dermal fibroblast culture model (Method E): type III collagen; assay type: cell-based; settings: 10 ng/mL; day 7; corrected for cell numbers, % of water control
Experimental: as §2, §3

hyaluronate = assay: Output of ECM components in adult human dermal fibroblast culture model (Method E): hyaluronate; assay type: cell-based; settings: 10 ng/mL; day 7; corrected for cell numbers, % of water control
Experimental: as §2, §3

elastin = assay: Output of ECM components in adult human dermal fibroblast culture model (Method E): elastin; assay type: cell-based; settings: 10 ng/mL; day 7; fixed cells; corrected for cell numbers, % of water control
Experimental: as §2, §3

## O=C1O[C@H]([C@@H](O)CO)C(O)=C1O [Ref. 5, ascorbic acid]
[1]
  ABTS: 0 % Control

## O=c1cc(CO)occ1O [Ref. 4, Kojic acid]
[2]; 50 ug/mL
  Melanin cell number-adjusted: 103 % Control
[2]; 200 ug/mL
  Melanin cell number-adjusted: 46 % Control

## basic fibroblast growth factor [bFGF]
Insoluble decorin
  Insoluble decorin: 87 % CTR
decorin
  decorin: 57 % CTR
Soluble decorin
  Soluble decorin: 67 % CTR
Type I Collagen
  Type I Collagen: 67 % CTR
Type III collagen
  Type III collagen: 87 % CTR
hyaluronate
  Hyaluronian: 72 % CTR
elastin
  elastin: 62 % CTR
